Laboratory results published in the supplement of paper PMC10307832.

How the values were obtained:
Assay in all cases: relative viability (nuclei count vs DMSO), 5 days (fraction); higher = more cells survive
[1] = compound: CC1=C(C(=NN1)C)CC2=C(C3=C(S2)N(C(=O)N(C3=O)C)CC(C)C)C(=O)N4C[C@@H](CO4)O + Cc1cc(Nc2cc(N3CCN(C)CC3)nc(Sc3ccc(NC(=O)C4CC4)cc3)n2)n[nH]1 [Tozasertib] (partner 0.1 µM)
Method in brief: (§1)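 Each reported value is a median over duplicate plates. It expresses relative viability: treated-well nuclei count divided by vehicle-well nuclei count. Lung cancer cell lines in 1536-well plates were dosed by pin tool a day after seeding, alone with one drug or with a fixed anchor-drug dose plus five library-drug doses (not always all listed) in √10 steps, and nuclei were counted after 5 days.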

[2] = compound: Cc1ccccc1C(C(=O)NC1CCCCC1)N(C(=O)Cn1ccnc1C)c1cccc(F)c1 [IDH-C35] + Cc1nc(NC(=O)N2CCC[C@H]2C(N)=O)sc1-c1ccnc(C(C)(C)C(F)(F)F)c1 [Alpelisib] (partner 2 µM)
Method in brief: as §1

[3] = compound: CC1=C(C(=NN1)C)CC2=C(C3=C(S2)N(C(=O)N(C3=O)C)CC(C)C)C(=O)N4C[C@@H](CO4)O + NC(=O)Nc1cc(-c2cccc(F)c2)sc1C(=O)N[C@H]1CCCNC1 [AZD7762] (partner 0.2 µM)
Method in brief: as §1

[4] = compound: CC1=C(C(=NN1)C)CC2=C(C3=C(S2)N(C(=O)N(C3=O)C)CC(C)C)C(=O)N4C[C@@H](CO4)O + COc1cccc2cc(-c3nc([C@H]4CC[C@H](C(=O)O)CC4)n4ncnc(N)c34)[nH]c12 [OSI-027] (partner 0.5 µM)
Method in brief: as §1

Cell Line	relative viability ([1]; first compound 0.0025 µM)	relative viability ([1]; first compound 0.007906 µM)	relative viability ([1]; first compound 0.025 µM)	relative viability ([1]; first compound 0.07906 µM)	relative viability ([1]; first compound 0.25 µM)	relative viability ([2]; first compound 0.08 µM)	relative viability ([2]; first compound 0.253 µM)	relative viability ([2]; first compound 0.8 µM)	relative viability ([2]; first compound 2.53 µM)	relative viability ([2]; first compound 8 µM)	relative viability ([3]; first compound 0.0025 µM)	relative viability ([3]; first compound 0.007906 µM)	relative viability ([3]; first compound 0.025 µM)	relative viability ([3]; first compound 0.07906 µM)	relative viability ([3]; first compound 0.25 µM)	relative viability ([4]; first compound 0.0025 µM)	relative viability ([4]; first compound 0.007906 µM)	relative viability ([4]; first compound 0.025 µM)	relative viability ([4]; first compound 0.07906 µM)	relative viability ([4]; first compound 0.25 µM)
LXF-289	0.205	0.213	0.18	0.186	0.22	1.04	1.03	1.01	0.994	1.03	1.06	1.13	1.07	1.2	1.22	0.902	0.785	0.734	0.819	0.749
ABC-1	0.197	0.196	0.216	0.19	0.255	0.907	1.03	1	1.05	0.857	0.777	0.631	0.732	0.878	0.841	0.55	0.459	0.583	0.517	0.52
NCI-H650	0.77	0.747	0.702	0.692	0.739	1.07	1.13	1.17		1.03	1.03	0.961	0.893	0.936	0.913	0.637	0.509	0.501	0.451	0.647
NCI-H2085	0.723	0.622	0.76	0.72	0.669	0.973	0.897	0.799	1.01	0.863	1.01	1.02	0.879	0.986	0.448	0.722	0.685	0.759	0.736	0.447
NCI-H1793	0.453	0.28	0.327	0.271	0.24	0.764	0.689	0.76	0.74	0.677	0.281	0.339	0.203	0.279	0.24	0.298	0.289	0.262	0.242	0.231
LC-2-ad	0.53	0.462	0.494	0.44	0.426	0.888	0.815	0.834	0.894	0.921	0.892	0.83	0.84	0.856	0.851	0.952	0.782	0.973	0.934	0.821
NCI-H1355	0.527	0.437	0.529	0.566	0.623	0.894	0.787	0.801	0.864	0.849	0.688	0.842	0.713	0.65	0.816	0.458	0.441	0.425	0.464	0.39
H3255	0.803	0.768	0.657	0.56	0.59	0.681	0.822	0.633	0.774	0.637	0.929	0.927	0.755	0.85	0.936	0.609	0.565	0.62	0.604	0.602
